Article PMC4779111, “A Human Renal Proximal Tubule Cell Line with Stable Organic Anion Transporter 1 and 3 Expression Predictive for Antiviral-Induced Toxicity” (The AAPS Journal, 2016)
Read-outs that look alike come from different tables or passages of the source.

Key:
[1] = biological target: T1, OAT3 (Homo sapiens, UniProt Q8TCC7); experiment: Inhibition of OAT-mediated fluorescein uptake in ciPTEC-OAT3
T1 sequence (Q8TCC7 1-542): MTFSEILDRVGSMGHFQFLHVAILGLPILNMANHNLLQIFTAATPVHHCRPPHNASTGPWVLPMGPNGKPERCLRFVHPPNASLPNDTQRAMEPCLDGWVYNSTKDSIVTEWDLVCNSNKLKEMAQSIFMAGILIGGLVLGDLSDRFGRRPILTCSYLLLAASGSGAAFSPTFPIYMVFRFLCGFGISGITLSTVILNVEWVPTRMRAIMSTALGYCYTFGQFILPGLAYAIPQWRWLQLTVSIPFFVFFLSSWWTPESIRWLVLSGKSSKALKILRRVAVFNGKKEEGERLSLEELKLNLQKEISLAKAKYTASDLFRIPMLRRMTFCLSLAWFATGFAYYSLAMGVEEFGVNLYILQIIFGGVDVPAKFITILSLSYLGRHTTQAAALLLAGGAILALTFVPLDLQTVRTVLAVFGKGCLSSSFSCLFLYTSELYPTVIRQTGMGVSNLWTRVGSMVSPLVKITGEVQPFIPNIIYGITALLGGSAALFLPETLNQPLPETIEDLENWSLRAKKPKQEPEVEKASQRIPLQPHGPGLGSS
Experimental: (§1) All chemicals were obtained from Sigma, unless stated otherwise. Uptake was stopped by washing three times with ice-cold HBSS (4°C).
(§2) Non-linear regression with variable slope constraining the top to 100% was used to fit the data after background subtraction with GraphPad Prism. Statistics was performed by two-way ANOVA (two-tailed, α = 0.05) using GraphPad Prism as well. All data is presented as mean ± SEM of at least three separate experiments (n = 3) performed in triplicate, unless stated otherwise.

[2] = biological target: T2, OAT1 (Homo sapiens, UniProt Q4U2R8); experiment: Inhibition of OAT-mediated fluorescein uptake in ciPTEC-OAT1; assay type: cell-based; parameters: host or cells: ciPTEC (human conditionally immortalized proximal tubule epithelial cells), lentiviral transduction
T2 sequence (Q4U2R8 1-563): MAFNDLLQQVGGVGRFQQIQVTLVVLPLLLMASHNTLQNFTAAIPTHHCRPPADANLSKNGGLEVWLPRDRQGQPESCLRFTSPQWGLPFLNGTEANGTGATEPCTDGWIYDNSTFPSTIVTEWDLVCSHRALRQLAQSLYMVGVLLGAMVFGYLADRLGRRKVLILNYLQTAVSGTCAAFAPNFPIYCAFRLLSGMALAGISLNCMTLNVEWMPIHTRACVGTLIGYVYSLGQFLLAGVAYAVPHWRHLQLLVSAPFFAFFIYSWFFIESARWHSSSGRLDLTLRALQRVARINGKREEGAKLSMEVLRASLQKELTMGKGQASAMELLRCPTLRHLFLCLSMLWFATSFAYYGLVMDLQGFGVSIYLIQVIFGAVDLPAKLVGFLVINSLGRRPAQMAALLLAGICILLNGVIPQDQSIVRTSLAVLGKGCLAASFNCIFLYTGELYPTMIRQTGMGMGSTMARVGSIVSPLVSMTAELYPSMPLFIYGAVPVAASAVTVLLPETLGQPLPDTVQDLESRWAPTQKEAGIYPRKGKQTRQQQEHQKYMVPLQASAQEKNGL
Experimental: as §1, §2

[3] = biological target: T1, OAT3; conditions: substrate estrone sulfate, Xenopus-OAT3; read-out: IC50 (literature); cited from earlier work
[4] = biological target: T1, OAT3; parameters: host or cells: ciPTEC (human conditionally immortalized proximal tubule epithelial cells), lentiviral transduction; conditions: substrate sitagliptin, CHO-OAT3; read-out: IC50 (literature); cited from earlier work
[5] = biological target: OCT2 (Homo sapiens, UniProt O15244); conditions: ASP+ 1 µM, 60 min, HBSS 37°C; similar IC50 in ciPTEC parent, ciPTEC-OAT1, ciPTEC-OAT3 (p>0.05)
Sequence of OCT2 (O15244 whole entry): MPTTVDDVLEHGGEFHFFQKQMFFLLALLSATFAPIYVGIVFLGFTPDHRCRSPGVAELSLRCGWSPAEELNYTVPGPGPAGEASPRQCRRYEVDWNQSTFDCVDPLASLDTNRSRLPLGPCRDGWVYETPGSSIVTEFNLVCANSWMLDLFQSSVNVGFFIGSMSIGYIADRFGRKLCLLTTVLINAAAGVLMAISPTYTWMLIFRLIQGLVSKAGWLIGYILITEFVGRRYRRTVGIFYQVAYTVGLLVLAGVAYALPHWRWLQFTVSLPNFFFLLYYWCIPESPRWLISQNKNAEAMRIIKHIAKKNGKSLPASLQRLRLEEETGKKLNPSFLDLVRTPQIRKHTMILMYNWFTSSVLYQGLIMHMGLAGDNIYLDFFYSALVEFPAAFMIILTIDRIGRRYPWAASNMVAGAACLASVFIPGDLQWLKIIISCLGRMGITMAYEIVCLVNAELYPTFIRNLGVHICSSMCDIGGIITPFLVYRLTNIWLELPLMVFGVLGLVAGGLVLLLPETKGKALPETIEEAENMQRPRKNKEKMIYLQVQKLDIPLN
Experimental: Supplementary Figure S1. […] ASP+ uptake (1 […]
µM) by ciPTEC parent, ciPTEC-OAT1 and ciPTEC-OAT3 when co-incubated with OCT2-substrate […]
The lines represent the fit according to a one-site competition model. Values are expressed as ±SEM, (ciPTEC, n=3; ciPTEC- […]
OAT1, n=4; ciPTEC-OAT3, n=2.
(1 picture or pasted object on this page, not shown here)

[6] = parameters: method as in PMID 19445515; conditions: cited from earlier work
[7] = system: ciPTEC parent; experiment: MTT viability assay, ciPTEC parent; assay type: cell-based, human; conditions: 50 μM (10× Cmax) with MK571 and KO143
Experimental: Briefly, monolayers of ciPTEC (96-wells) were exposed to antivirals in serum-free medium (SFM) on day 6 of maturation.
as §2

[8] = plasma, maximal free plasma concentration, 47 (zidovudine), cited from earlier work
[9] = system: ciPTEC-OAT1; experiment: MTT viability assay, ciPTEC-OAT1; assay type: cell-based, human
[10] = system: ciPTEC-OAT3; experiment: MTT viability assay, ciPTEC-OAT3; assay type: cell-based, human
Experimental: Cell toxicity was analyzed further in presence of MRP and BCRP efflux inhibitors MK571 (5 μM) and KO143 (10 μM).

| Inhibition of ASP+ uptake at OCT2 [5] | Compound | IC50 [1] [µM] | IC50 at 10 min ([2]; human, ciPTEC-OAT1 cells (mature monolayers), probe fluorescein (1 μM)) [µM] | IC50 [3] [µM] | IC50 [4] [µM] | IC50 [2] [µM] | Fraction eliminated via the urine without metabolic alterations [6] [%] | Cell viability in presence of efflux inhibitors [7] | Cmax ([8]; first-listed (lower) value per drug, ref 40 (adefovir), 42 (cidofovir), 45 (tenofovir)) [µM] | Cmax ([8]; second-listed (higher) value per drug, ref 41 (adefovir), 43 (cidofovir), 46 (tenofovir)) [µM] | Cell viability in presence of efflux inhibitors ([9]; ciPTEC-OAT1, 50 μM (10× Cmax) with MK571 and KO143) | Cell viability (MTT), concentration and time dependence ([9]; ciPTEC-OAT1, 24, 48 and 72 h) | Cell viability in presence of efflux inhibitors ([10]; ciPTEC-OAT3, 50 μM (10× Cmax) with MK571 and KO143) | Cell viability (MTT), concentration and time dependence ([10]; ciPTEC-OAT3, 24, 48 and 72 h) |
| --- | --- | --- | --- | --- | --- | --- | --- | --- | --- | --- | --- | --- | --- | --- |
| significant inhibition | CN/C(=N/CCSCc1nc[nH]c1C)NC#N [Cimetidine, cimetidine] | 215 ± 162 | 654 ± 291 | 53 | 79 | – | – | – | – | – | – | – | – | – |
| – | Cc1cn([C@H]2C[C@H](N=[N+]=[N-])[C@@H](CO)O2)c(=O)[nH]c1=O [Zidovudine, zidovudine] | 21 ± 4 | – | – | – | 14 ± 7 | 23 | did not affect cell viability | 5.5 | 6.6 | did not affect cell viability | did not affect cell viability | did not affect cell viability | did not affect cell viability |
